{"source": "patent US12492181B2", "about": "“Gem-disubstituted piperidine melanocortin subtype-2 receptor (MC2R) antagonists and uses thereof” (Crinetics Pharmaceuticals, Inc., priority 2019, dated 2025)", "note": "pKi: −log10 of the molar value.", "data": [{"biological_target": "T1, hMC2 receptor (crude hMC2R membranes from CRE-bla-CHO-K1 cells stably expressing hMC2 receptor and hMRAP accessory protein) (Homo sapiens, UniProt Q01718)", "T1 construct": "crude membrane fractions", "T1 sequence (Q01718 whole entry)": "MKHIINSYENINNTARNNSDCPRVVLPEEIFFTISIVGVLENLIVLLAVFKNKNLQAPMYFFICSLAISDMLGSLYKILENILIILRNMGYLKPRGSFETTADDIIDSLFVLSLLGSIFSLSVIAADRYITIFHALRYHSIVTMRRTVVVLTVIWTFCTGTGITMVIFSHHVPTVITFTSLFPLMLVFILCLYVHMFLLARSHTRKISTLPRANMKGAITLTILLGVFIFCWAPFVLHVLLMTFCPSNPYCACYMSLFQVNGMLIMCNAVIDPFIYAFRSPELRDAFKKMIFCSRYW", "T1 sequence (Q8TCY5 whole entry partner)": "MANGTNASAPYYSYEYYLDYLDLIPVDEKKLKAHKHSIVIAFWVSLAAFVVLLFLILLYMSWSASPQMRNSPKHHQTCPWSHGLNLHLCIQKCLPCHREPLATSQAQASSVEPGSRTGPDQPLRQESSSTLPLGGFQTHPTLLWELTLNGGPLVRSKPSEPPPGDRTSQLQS", "assay": "hMC2 membrane binding assay ([125I]ACTH (1-39) Tyr23, SPA)", "conditions": "displacement of 0.2 nM [125I]ACTH (1-39) Tyr23 from hMC2R membranes, 1.5 hours at room temperature; read-out: MC2R binding potency", "method": "Crude membrane fractions are prepared from CRE-bla-CHO-K1 cells stably expressing hMC2 receptor and hMRAP accessory protein (Thermo Fisher). The cells are grown to 85-100% confluence on standard tissue culture dishes in GlutaMax DMEM growth media (Gibco) with following additives: 10% dialyzed FBS (Gemini), 0.1 mM NEAA (Gibco), 25 mM HEPES (Gibco), 5 μg/mL blasticidin (Goldbio), 100 μg/mL zeocin (Invitrogen), 600 μg/mL hygromycin (Goldbio). To prepare membranes, cells are scraped and collected in 1× Dulbecco's phosphate buffered saline (Corning) and then pelleted at 1000 RPM's. The cell pellet is reconstituted in membrane preparation buffer (20 mM HEPES, 6 mM MgCl2 and 1 mM EGTA, protease inhibitor tablets (Pierce) adjusted to pH 7.4), homogenized using a dounce homogenizer, and the resulting membrane fraction is pelleted by centrifugation at 12,000 RPM's. The membrane pellet is resuspended in membrane preparation buffer, snap freezed and stored at −80° C. for later use.\nBinding Assay for hMC2 Antagonists Protocol:\nThe hMC2 membrane binding assay utilizes the following components: radiolabel [^125I]ACTH (1-39) Tyr23 (PerkinElmer), wheatgerm agglutinin coated PVT SPA beads (PerkinElmer), crude hMC2R membranes, and compounds. Briefly hMC2R membranes are incubated with SPA beads in binding assay buffer (50 mM HEPES, 5 mM MgCl2, 1 mM CaCl2), 0.20% BSA, protease inhibitor tablets (Pierce) adjusted to pH7.4) prior to assay initiation. […] Assay plates are read using a Top Count NXT and Ki values for compounds are determined using a GraphPad Prism 6 non-linear regression analysis.", "values": [{"smiles": "CCOc1ncccc1-c1ccc(C2(NC(=O)N[C@@H]3CCN(C)C3)CCN(c3ccc(C(F)(F)F)cc3C#N)CC2)cn1", "note": "[Compound 2-19, 1-{1-[2-cyano-4-(trifluoromethyl)phenyl]-4-{2′-ethoxy-[2,3′-bipyridin]-5-yl}piperidin-4-yl}-3-[(3R)-1-methylpyrrolidin-3-yl]urea]", "pKi": "> 8.00"}, {"smiles": "COc1ccccc1-c1ccc(C2(C(=O)N[C@@H]3CCN(C)C3)CCN(c3ccc(C(F)(F)F)cc3C#N)CC2)cn1", "note": "[Compound 1-52, 1-[2-cyano-4-(trifluoromethyl)phenyl]-4-[6-(2-methoxyphenyl)pyridin-3-yl]-N-[(3R)-1-methylpyrrolidin-3-yl]piperidine-4-carboxamide]", "pKi": "> 8.00"}, {"smiles": "CCOc1ccccc1-c1ccc(C2(NC(=O)C3CN(C)C3)CCN(c3ccc(Cl)cc3C#N)CC2)cn1", "note": "[Compound 2-25, N-[1-(4-chloro-2-cyanophenyl)-4-[6-(2-ethoxyphenyl)pyridin-3-yl]piperidin-4-yl]-1-methylazetidine-3-carboxamide]", "pKi": "> 8.00"}, {"smiles": "CCOc1ncccc1-c1ccc(C2(C(=O)N[C@@H](C)CNC)CCN(c3ccc(C(F)(F)F)cc3C#N)CC2)cn1", "note": "[Compound 1-314, 1-[2-cyano-4-(trifluoromethyl)phenyl]-4-{2′-ethoxy-[2,3′-bipyridin]-5-yl}-N-[(2S)-1-(methylamino)propan-2-yl]piperidine-4-carboxamide]", "pKi": "> 8.00"}, {"smiles": "CNCCNC(=O)C1(c2ccc(-c3ccccc3OC)nc2)CCN(c2ccc(C(F)(F)F)cc2Cl)CC1", "note": "[Compound 1-257, 1-[2-chloro-4-(trifluoromethyl)phenyl]-4-[6-(2-methoxyphenyl)pyridin-3-yl]-N-[2-(methylamino)ethyl]piperidine-4-carboxamide]", "pKi": "> 8.00"}, {"smiles": "CN1CC[C@H](NC(=O)C2(c3cnc(-c4cccn4C)c(F)c3)CCN(c3ccc(C(F)(F)F)cc3F)CC2)C1", "note": "[Compound 1-192, 1-[2-fluoro-4-(trifluoromethyl)phenyl]-4-[5-fluoro-6-(1-methyl-1H-pyrrol-2-yl)pyridin-3-yl]-N-[(3S)-1-methylpyrrolidin-3-yl]piperidine-4-carboxamide]", "pKi": "> 8.00"}, {"smiles": "COc1ccccc1-c1ncc(C2(C(=O)NCCN(C)C)CCN(c3ccc(C(F)(F)F)cc3F)CC2)cc1F", "note": "[Compound 1-285, N-[2-(dimethylamino)ethyl]-1-[2-fluoro-4-(trifluoromethyl)phenyl]-4-[5-fluoro-6-(2-methoxyphenyl)pyridin-3-yl]piperidine-4-carboxamide]", "pKi": "> 8.00"}, {"smiles": "COc1ncccc1-c1ncc(C2(C(=O)NCCN(C)C)CCN(c3ccc(C(F)(F)F)cc3Cl)CC2)cc1F", "note": "[Compound 1-302, 1-[2-chloro-4-(trifluoromethyl)phenyl]-N-[2-(dimethylamino)ethyl]-4-{3-fluoro-2′-methoxy-[2,3′-bipyridin]-5-yl}piperidine-4-carboxamide]", "pKi": "> 8.00"}, {"smiles": "CN1CC[C@@H](NC(=O)C2(c3ccc(-c4ccn(C)c4)nc3)CCN(c3ccc(C(F)(F)F)cc3C#N)CC2)C1", "note": "[Compound 1-115, 1-[2-cyano-4-(trifluoromethyl)phenyl]-4-[6-(1-methyl-1H-pyrrol-3-yl)pyridin-3-yl]-N-[(3R)-1-methylpyrrolidin-3-yl]piperidine-4-carboxamide]", "pKi": "7.00 to 8.00"}, {"smiles": "COc1nc2ccccc2cc1-c1ccc(C2(C(=O)N[C@@H]3CCN(C)C3)CCN(c3ccc(C(F)(F)F)cc3C#N)CC2)cn1", "note": "[Compound 1-189, 1-[2-cyano-4-(trifluoromethyl)phenyl]-4-[6-(2-methoxyquinolin-3-yl)pyridin-3-yl]-N-[(3R)-1-methylpyrrolidin-3-yl]piperidine-4-carboxamide]", "pKi": "> 8.00"}, {"smiles": "COc1ccccc1-c1ccc(C2(C(=O)N[C@H]3CCN(C)C3)CCN(c3ccc(C(F)(F)F)cc3C#N)CC2)cn1", "note": "[Compound 1-166, 1-[2-cyano-4-(trifluoromethyl)phenyl]-4-[6-(2-methoxyphenyl)pyridin-3-yl]-N-[(3S)-1-methylpyrrolidin-3-yl]piperidine-4-carboxamide]", "pKi": "> 8.00"}, {"smiles": "COc1sccc1-c1ccc(C2(C(=O)N[C@@H]3CCN(C)C3)CCN(c3ccc(C(F)(F)F)cc3C#N)CC2)cn1", "note": "[Compound 1-83, 1-[2-cyano-4-(trifluoromethyl)phenyl]-4-[6-(2-methoxythiophen-3-yl)pyridin-3-yl]-N-[(3R)-1-methylpyrrolidin-3-yl]piperidine-4-carboxamide]", "pKi": "> 8.00"}, {"smiles": "CCOc1ncccc1-c1ccc(C2(C(=O)NCCN(C)C)CCN(c3ccc(C(F)(F)F)cc3F)CC2)cn1", "note": "[Compound 1-222, N-[2-(dimethylamino)ethyl]-4-{2′-ethoxy-[2,3′-bipyridin]-5-yl}-1-[2-fluoro-4-(trifluoromethyl)phenyl]piperidine-4-carboxamide]", "pKi": "> 8.00"}, {"smiles": "COc1ccccc1-c1ccc(C2(C(=O)N[C@@H]3CN(C)C[C@@H]3F)CCN(c3ccc(C(F)(F)F)cc3C#N)CC2)cn1", "note": "[Compound 1-242, 1-[2-cyano-4-(trifluoromethyl)phenyl]-N-[(3R,4S)-4-fluoro-1-methylpyrrolidin-3-yl]-4-[6-(2-methoxyphenyl)pyridin-3-yl]piperidine-4-carboxamide]", "pKi": "> 8.00"}, {"smiles": "Cc1cscc1-c1ccc(C2(C(=O)N[C@@H]3CCN(C)C3)CCN(c3ccc(C(F)(F)F)cc3C#N)CC2)cn1", "note": "[Compound 1-138, 1-[2-cyano-4-(trifluoromethyl)phenyl]-N-[(3R)-1-methylpyrrolidin-3-yl]-4-[6-(4-methylthiophen-3-yl)pyridin-3-yl]piperidine-4-carboxamide]", "pKi": "> 8.00"}, {"smiles": "CN1CC[C@@H](NC(=O)C2(c3ccc(-c4ccnn4C)nc3)CCN(c3ccc(C(F)(F)F)cc3C#N)CC2)C1", "note": "[Compound 1-43, 1-[2-cyano-4-(trifluoromethyl)phenyl]-4-[6-(1-methyl-1H-pyrazol-5-yl)pyridin-3-yl]-N-[(3R)-1-methylpyrrolidin-3-yl]piperidine-4-carboxamide]", "pKi": "> 8.00"}, {"smiles": "CCc1ccccc1-c1ccc(C2(C(=O)N[C@H]3CCN(C)C3)CCN(c3ccc(C(F)(F)F)cc3C#N)CC2)cn1", "note": "[Compound 1-104, 1-[2-cyano-4-(trifluoromethyl)phenyl]-4-[6-(2-ethylphenyl)pyridin-3-yl]-N-[(3S)-1-methylpyrrolidin-3-yl]piperidine-4-carboxamide]", "pKi": "> 8.00"}, {"smiles": "COCc1ccccc1-c1ccc(C2(C(=O)N[C@@H]3CCN(C)C3)CCN(c3ccc(C(F)(F)F)cc3C#N)CC2)cn1", "note": "[Compound 1-79, 1-[2-cyano-4-(trifluoromethyl)phenyl]-4-{6-[2-(methoxymethyl)phenyl]pyridin-3-yl}-N-[(3R)-1-methylpyrrolidin-3-yl]piperidine-4-carboxamide]", "pKi": "> 8.00"}, {"smiles": "CN1CC[C@H](NC(=O)NC2(c3ccc(-c4cccn4C)nc3)CCN(c3ccc(C(F)(F)F)cc3C#N)CC2)C1", "note": "[Compound 2-43, 1-{1-[2-cyano-4-(trifluoromethyl)phenyl]-4-[6-(1-methyl-1H-pyrrol-2-yl)pyridin-3-yl]piperidin-4-yl}-3-[(3S)-1-methylpyrrolidin-3-yl]urea]", "pKi": "> 8.00"}, {"smiles": "CN1CC[C@@H](NC(=O)C2(c3ccc(-c4ccccc4F)nc3)CCN(c3ccc(C(F)(F)F)cc3C#N)CC2)C1", "note": "[Compound 1-74, 1-[2-cyano-4-(trifluoromethyl)phenyl]-4-[6-(2-fluorophenyl)pyridin-3-yl]-N-[(3R)-1-methylpyrrolidin-3-yl]piperidine-4-carboxamide]", "pKi": "> 8.00"}, {"smiles": "CN1CC[C@H](NC(=O)C2(c3ccc(-c4cccn4C)nc3)CCN(c3ccc(C(F)(F)F)cc3Cl)CC2)C1", "note": "[Compound 1-160, 1-[2-chloro-4-(trifluoromethyl)phenyl]-4-[6-(1-methyl-1H-pyrrol-2-yl)pyridin-3-yl]-N-[(3S)-1-methylpyrrolidin-3-yl]piperidine-4-carboxamide]", "pKi": "> 8.00"}, {"smiles": "Cn1cccc1-c1ccc(C2(C(=O)N[C@H]3C[C@@H](N(C)C)C3)CCN(c3ccc(C(F)(F)F)cc3C#N)CC2)cn1", "note": "[Compound 1-239, 1-[2-cyano-4-(trifluoromethyl)phenyl]-4-[6-(1-methyl-1H-pyrrol-2-yl)pyridin-3-yl]-N-[(1S,3S)-3-(dimethylamino)cyclobutyl]piperidine-4-carboxamide]", "pKi": "7.00 to 8.00"}, {"smiles": "CNCCNC(=O)C1(c2cnc(-c3ccccc3OC)c(F)c2)CCN(c2ccc(C(F)(F)F)cc2Cl)CC1", "note": "[Compound 1-294, 1-[2-chloro-4-(trifluoromethyl)phenyl]-4-[5-fluoro-6-(2-methoxyphenyl)pyridin-3-yl]-N-[2-(methylamino)ethyl]piperidine-4-carboxamide]", "pKi": "7.00 to 8.00"}, {"smiles": "COc1ncccc1-c1ccc(C2(C(=O)N[C@@H](C)CN(C)C)CCN(c3ccc(C(F)(F)F)cc3F)CC2)cn1", "note": "[Compound 1-295, N-[(2S)-1-(dimethylamino)propan-2-yl]-1-[2-fluoro-4-(trifluoromethyl)phenyl]-4-{2′-methoxy-[2,3′-bipyridin]-5-yl}piperidine-4-carboxamide]", "pKi": "> 8.00"}]}]}
